{"source": "patent US7563789B2", "about": "“1-Adamantyl chalcones for the treatment of proliferative disorders” (priority 2002, dated 2009)", "key": {"[1]": {"system": "normal breast epithelial cell line MCF-10", "assay": "Toxicity for normal breast epithelial cells", "type": "cell-based", "conditions": "MCF-10 cells; highest concentration tested (1 mM); average values", "method": "3. […] LC50 values were estimated from a dose response graph.\nThe relative toxicity of the synthesized compounds (47a-e) against normal breast cells was studied by exposing normal breast epithelial cell line MCF-10 to our synthesized compounds in concentration ranges from 1 nM to 1 mM. These cells were likewise exposed to equivalent concentrations of Tamoxifen, Genestein, and Doxyrubicin. […] At concentrations lower than 10^−7 M, these compounds appeared to enhance the viability of cells."}, "[2]": {"system": "MCF-7 (ER-positive) human breast cancer cell line", "assay": "cells", "method": "1. A dose response curve for compounds, series I, II, III, IV, over a concentration range of 1 mM to 1 nM was prepared in order to detect the doses where possible biological activity might exist. Biological activity was determined by relative LC50 values of these agents.\n(§1) 2. The compounds in series I, II, III, and IV were examined against two different types of breast cancer cell lines which included estrogen receptor positive (MCF-7) and estrogen receptor negative (MDA-MB435) cell lines.\n(§2) 3. Toxicity of the compounds for normal breast epithelial cells were examined by comparing LC50 values in normal breast epithelial cell line (MCF-10) against LC50 values in cancer cell lines. LC50 is the concentration that is lethal to 50 percent of the cells. LC50 values were estimated from a dose response graph.\n(§3) Two human breast cancers cell lines (MCF-7 and MDA-MB435) and a normal breast epithelial cell line (MCF-10) were obtained from ATCC (American Type Culture Collection) to test against the series of compounds and the data were examined for the compounds' relative antiproliferation profiles. All of these cell lines were derived from epithelial tissue. These cell lines were selected because they allowed our laboratory to investigate the effects of the compounds in: 1) breast neoplasms whose growth is stimulated by the presence of estrogen, MCF-7 (ER-positive); 2) Breast neoplasms whose growth is not stimulated by estrogen MDA-MB435 (ER-negative); and 3) A non-cancer cell line (MCF-10) to compare relative toxicities of the compounds."}, "[3]": {"system": "MDA-MB435 (ER-negative) human breast cancer cell line", "assay": "Dose response / cell viability (LC50) in MDA-MB435 breast cancer cells", "method": "1. […] Biological activity was determined by relative LC50 values of these agents.\nas §1, §2, §3"}, "[4]": {"system": "TGF stimulated growth of MDA-MB 435 cells", "experimental": "4. The possible mechanism of action of these compounds was explored by examining the ability of these agents to reverse growth factor stimulated proliferation. The ability of these compounds to attenuate EGF and TGF stimulated growth was tested.\n(§4) Both MCF-7 and MDA-MB435 cells contain EGF-R and TGF-R. In an effort to examine the role of EGF-R and TGF-R in the proliferation of MCF-7 and MDA-MB435, these cells were stimulated to growth stimulatory at 50 percent (GS50) values.\n(§5) In all cases 10 ml of growth factor was administered at a concentration of 1 ng/ml."}, "[5]": {"system": "TGF-α stimulated growth of MCF-7 cells", "assay": "Reversal of TGF-α stimulated growth of MCF-7 cells", "type": "cell-based", "experimental": "(§6) The possible mechanism of action of these compounds was explored by examining the ability of these agents to reverse growth factor stimulated proliferation. The ability of these compounds to attenuate EGF and TGF stimulated growth was tested.\nas §4, §5"}, "[6]": {"system": "EGF stimulated growth of MDA-MB435 cells", "assay": "Reversal of EGF stimulated growth of MDA-MB435 cells", "type": "cell-based", "conditions": "EGF (1 ng/ml) serum and non-serum stimulated growth of MDA-MB435 cells; 10^−9 to 10^−3 M", "experimental": "as §6, §4, §5"}, "[7]": {"system": "EGF stimulated growth of MCF-7 cells", "type": "cell-based, human", "experimental": "as §6, §4, §5"}, "[8]": {"system": "Normal human mammary epithelial (HME) cells stimulated by EGF", "conditions": "read-out: concentration at which cell growth is inhibited by 50% (IC50); cited from earlier work"}, "[9]": {"conditions": "Homo sapiens, MCF7, read-out: LC50"}}, "note": "Where two headings read alike, the source gives them in different places."}
{"smiles": "O=C(/C=C/c1ccnc2ccccc12)C12CC3CC(CC(C3)C1)C2", "note": "[Compound 47e]", "values": [{"measurement": "% cell viability", "setting": "[1]", "value": 98, "unit": "%"}, {"measurement": "CC50", "setting": "[2]", "value": 50, "unit": "µM"}, {"measurement": "LC50 increase over tamoxifen", "setting": "[2]; MCF-7 cells, versus tamoxifen", "value": 10, "unit": "fold"}]}
{"smiles": "O=C(/C=C/c1cccnc1)C12CC3CC(CC(C3)C1)C2", "note": "[Compound 47b]", "values": [{"measurement": "% cell viability", "setting": "[1]", "value": 124, "unit": "%"}, {"measurement": "CC50", "setting": "[3]", "value": 5, "unit": "µM"}]}
{"smiles": "Cc1cccc(/C=C/C(=O)C23CC4CC(CC(C4)C2)C3)n1", "note": "[Compound 47d]", "values": [{"measurement": "% cell viability", "setting": "[1]", "value": 94, "unit": "%"}]}
{"smiles": "CC/C(=C(\\c1ccccc1)c1ccc(OCCN(C)C)cc1)c1ccccc1", "note": "[Tamoxifen]", "values": [{"measurement": "CC50", "setting": "[2]; [9]", "value": 500, "unit": "µM"}, {"measurement": "effect on cell viability (in words)", "setting": "[3]; MDA-MB435 cells", "value": "ineffective at lower concentrations"}]}
{"smiles": "O=C(/C=C/c1ccncc1)C12CC3CC(CC(C3)C1)C2", "note": "[Compound 47c]", "values": [{"measurement": "% cell viability", "setting": "[1]", "value": 102, "unit": "%"}]}
{"smiles": "O=C(/C=C/c1ccccn1)C12CC3CC(CC(C3)C1)C2", "note": "[Compound 47a]", "values": [{"measurement": "% cell viability", "setting": "[1]", "value": 103, "unit": "%"}, {"measurement": "concentration reversing stimulated growth back to control values", "setting": "[4]; TGF (1 ng/ml) non-serum stimulated growth of MDA-MB 435 cells", "value": 10, "unit": "µM"}, {"measurement": "concentration reversing stimulated growth back to control values", "setting": "[4]; TGF (1 ng/ml) serum stimulated growth of MDA-MB 435 cells", "value": 50, "unit": "µM"}, {"measurement": "CC50", "setting": "[5]; MCF-7, TGF 1 ng/ml, non-serum stimulated, reversal value, read-out: LC50 Data for Administered Drug, Non-Serum Stimulated", "value": 50, "unit": "µM"}, {"measurement": "reversal of stimulated growth (in words)", "setting": "[5]; TGF-α serum and non-serum stimulated growth of MCF-7 cells, 10^−9 to 10^−3 M", "value": "neither TGF-α serum stimulated nor non-serum stimulated growth of MCF-7 cells significantly reversed"}, {"measurement": "reversal of stimulated growth (in words)", "setting": "[6]", "value": "Neither EGF (1 ng/ml) serum nor non-serum stimulated growth of MDA-MB435 cells was reversed"}, {"measurement": "IC50", "setting": "[7]; EGF-non serum stimulated growth of MCF-7 cells, read-out: IC50, reversal of stimulated growth back to control values", "value": 50, "unit": "µM"}, {"measurement": "concentration reversing stimulated growth back to control values", "setting": "[7]; EGF-serum stimulated growth of MCF-7 cells", "value": 10, "unit": "µM"}]}
{"smiles": "COc1cccc2c1C(=O)c1c(O)c3c(c(O)c1C2=O)C[C@@](O)(C(=O)CO)C[C@@H]3O[C@H]1C[C@H](N)[C@H](O)[C@H](C)O1", "note": "[Doxyrubicin]", "values": [{"measurement": "CC50", "setting": "[2]; [9]", "value": 500, "unit": "µM"}]}
{"smiles": "O=c1c(-c2ccc(O)cc2)coc2cc(O)cc(O)c12", "note": "[Genestein, Genistein]", "values": [{"measurement": "IC50", "setting": "[8]", "value": 1, "unit": "µM"}, {"measurement": "CC50", "setting": "[3]; Homo sapiens, MDA-MB-435, read-out: LC50", "value": 5000, "unit": "µM"}, {"measurement": "LC50 (in words)", "setting": "[3]; MDA-MB435 cells, in the concentration range measured (1 mM to 1 nM)", "value": "no LC50 was obtained"}]}
{"smiles": "CC(C)c1ccc(/C=C/C(=O)C23CC4CC(CC(C4)C2)C3)cc1", "note": "[Compound 43f]", "values": [{"measurement": "decrease of cell viability", "setting": "[2]", "value": 20, "unit": "%"}, {"measurement": "effect on cell viability (in words)", "setting": "[3]; MDA-MB435 cells", "value": "altered cell viability only at much higher concentrations than required for MCF-7 cells"}]}
